# Columns and labels:
# [1] = molecular target: Phosphatidylinositol 4,5-bisphosphate 3-kinase catalytic subunit beta isoform (Homo sapiens) (UniProt P42338); settings: Compound concentration 1000.0 nM
# [2] = molecular target: Alpha-2C adrenergic receptor (Homo sapiens) (UniProt P18825); settings: Compound concentration 10.0 uM
# [3] = molecular target: TGF-beta receptor type-1 (Homo sapiens) (UniProt P36897); settings: Compound concentration 1000.0 nM
# [4] = molecular target: 5-hydroxytryptamine receptor 4 (Homo sapiens) (UniProt Q13639); assay: Inhibition of Serotonin (5-Hydroxytryptamine) 5-HT4 at 10 µM in the Eurofins-Panlabs radioligand binding assay (Eurofins_assay_272000); settings: Cavia porcellus; Compound concentration 10.0 uM
# 5-hydroxytryptamine receptor 4 (Homo sapiens), sequence (Q13639 whole entry): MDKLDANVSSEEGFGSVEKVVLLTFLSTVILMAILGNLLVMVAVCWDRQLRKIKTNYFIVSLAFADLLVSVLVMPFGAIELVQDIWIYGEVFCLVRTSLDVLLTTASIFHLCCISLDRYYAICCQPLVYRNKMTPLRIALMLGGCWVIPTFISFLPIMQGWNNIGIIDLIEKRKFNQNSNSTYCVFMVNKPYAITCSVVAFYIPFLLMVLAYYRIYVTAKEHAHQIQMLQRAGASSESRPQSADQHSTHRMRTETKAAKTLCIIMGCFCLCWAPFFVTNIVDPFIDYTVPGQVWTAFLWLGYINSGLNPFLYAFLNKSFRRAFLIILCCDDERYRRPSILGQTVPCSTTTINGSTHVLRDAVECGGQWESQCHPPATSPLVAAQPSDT
# [5] = species: Homo sapiens; assay: Prostanoid, Thromboxane A2 (TP) Eurofins-Panlabs radioligand binding assay; parameters: ligand concentration 5 nM, non-specific ligand with concentration 1 µM SQ-29548, incubation time 30 min, incubation temperature 25 °C; settings: Compound concentration 10.0 uM
# [6] = molecular target: 5-hydroxytryptamine receptor 2B (Homo sapiens) (UniProt P41595); settings: Compound concentration 10.0 uM
# 5-hydroxytryptamine receptor 2B (Homo sapiens), sequence (P41595 whole entry): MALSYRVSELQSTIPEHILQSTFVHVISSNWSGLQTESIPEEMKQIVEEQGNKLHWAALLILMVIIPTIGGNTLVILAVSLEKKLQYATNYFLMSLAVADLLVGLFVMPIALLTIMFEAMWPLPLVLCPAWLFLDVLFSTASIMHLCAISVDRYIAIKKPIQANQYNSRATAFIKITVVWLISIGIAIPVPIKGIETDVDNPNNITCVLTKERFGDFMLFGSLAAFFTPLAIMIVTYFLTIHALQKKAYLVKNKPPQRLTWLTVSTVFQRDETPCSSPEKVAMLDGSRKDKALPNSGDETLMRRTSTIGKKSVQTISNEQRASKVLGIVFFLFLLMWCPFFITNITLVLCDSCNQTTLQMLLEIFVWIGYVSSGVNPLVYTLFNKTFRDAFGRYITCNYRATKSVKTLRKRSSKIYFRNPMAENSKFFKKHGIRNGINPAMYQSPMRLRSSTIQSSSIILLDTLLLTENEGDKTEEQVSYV
# [7] = molecular target: Somatostatin receptor type 5 (Homo sapiens) (UniProt P35346); assay: Somatostatin sst5 Eurofins-Panlabs radioligand binding assay; settings: Compound concentration 10.0 uM
# [8] = molecular target: D(3) dopamine receptor (Homo sapiens) (UniProt P35462); settings: Compound concentration 10.0 uM
# [9] = molecular target: Somatostatin receptor type 2 (Homo sapiens) (UniProt P30874); assay: Somatostatin sst2 Eurofins-Panlabs radioligand binding assay; parameters: ligand concentration 0.1 nM; settings: Compound concentration 10.0 uM
# [10] = molecular target: Melanocortin receptor 4 (Homo sapiens) (UniProt P32245); assay: Inhibition of Melanocortin MC4 at 10 µM in the Eurofins-Panlabs radioligand binding assay (Eurofins_assay_251350); parameters: ligand concentration 0.02 nM; settings: Compound concentration 10.0 uM
# [11] = molecular target: Glutamate (NMDA/AMPA/Kainate) (Rattus norvegicus) (UniProt P35439+Q00959+Q00960+Q00961+Q62645+Q8VHN2+Q9R1M7+P22756+Q9ULK0+Q01812+P19491+P19492+P19493+P42260+P42264+P19490+Q63273+O43424); assay: Glutamate, Non-Selective Eurofins-Panlabs radioligand binding assay; assay type: protein-complex assay; parameters: ligand concentration 3.75 nM; settings: Compound concentration 10.0 uM
# [12] = molecular target: D(2) dopamine receptor (Homo sapiens) (UniProt P14416); settings: Compound concentration 10.0 uM
# [13] = molecular target: Beta-2 adrenergic receptor (Homo sapiens) (UniProt P07550); settings: Compound concentration 10.0 uM
# Beta-2 adrenergic receptor (Homo sapiens), sequence (P07550 whole entry, looked up): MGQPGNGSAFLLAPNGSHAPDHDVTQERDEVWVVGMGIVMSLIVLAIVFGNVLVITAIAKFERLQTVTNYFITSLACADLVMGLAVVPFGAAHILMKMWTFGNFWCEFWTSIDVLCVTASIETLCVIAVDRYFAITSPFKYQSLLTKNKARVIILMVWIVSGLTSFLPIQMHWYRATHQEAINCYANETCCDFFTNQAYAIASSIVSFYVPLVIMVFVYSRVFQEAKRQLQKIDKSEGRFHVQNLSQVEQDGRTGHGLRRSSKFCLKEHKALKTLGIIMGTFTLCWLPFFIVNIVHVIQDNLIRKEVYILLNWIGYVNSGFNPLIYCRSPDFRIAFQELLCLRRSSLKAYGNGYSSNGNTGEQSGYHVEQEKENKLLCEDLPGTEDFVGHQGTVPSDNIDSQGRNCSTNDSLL
# [14] = molecular target: T1, 5-hydroxytryptamine receptor 1A (Homo sapiens) (UniProt P08908); settings: Compound concentration 10.0 uM
# T1 sequence (whole entry): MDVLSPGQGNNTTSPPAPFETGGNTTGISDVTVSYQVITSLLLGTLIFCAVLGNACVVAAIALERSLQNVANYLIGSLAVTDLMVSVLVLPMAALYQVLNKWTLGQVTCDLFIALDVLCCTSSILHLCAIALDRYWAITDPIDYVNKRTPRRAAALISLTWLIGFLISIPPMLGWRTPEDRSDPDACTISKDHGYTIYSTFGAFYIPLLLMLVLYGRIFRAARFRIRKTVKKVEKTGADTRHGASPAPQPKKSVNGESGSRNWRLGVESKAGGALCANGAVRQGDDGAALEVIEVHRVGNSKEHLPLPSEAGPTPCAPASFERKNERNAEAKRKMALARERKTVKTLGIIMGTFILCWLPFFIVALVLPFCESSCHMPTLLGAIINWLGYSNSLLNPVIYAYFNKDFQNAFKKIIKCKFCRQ
# [15] = molecular target: Acetylcholinesterase (Homo sapiens) (UniProt P22303); settings: Compound concentration 10.0 uM
# [16] = species: Rattus norvegicus; assay: Potassium Channel [KA] Eurofins-Panlabs radioligand binding assay; parameters: ligand concentration 0.01 nM; settings: Compound concentration 10.0 uM
# [17] = molecular target: Epidermal growth factor receptor (Homo sapiens) (UniProt P00533); assay: Protein Tyrosine Kinase, EGF Receptor Eurofins-Panlabs enzyme assay; parameters: substrate with concentration 10 µg/mL Poly(Glu:Tyr), incubation time 60 min, incubation temperature 25 °C; settings: Compound concentration 10.0 uM
# [18] = species: Homo sapiens; assay: Inhibition of Nicotinic Acetylcholine at compound concentration of 10.0 uM in the Eurofins-Panlabs radioligand binding assay (Eurofins_assay_258590); assay type: protein-complex assay; settings: Compound concentration 10.0 uM
# [19] = molecular target: 5-hydroxytryptamine receptor 6 (Homo sapiens) (UniProt P50406); assay: Inhibition of Serotonin (5-Hydroxytryptamine) 5-HT6 at 10 µM in the Eurofins-Panlabs radioligand binding assay (Eurofins_assay_272200); settings: Compound concentration 10.0 uM
# [20] = molecular target: Muscarinic acetylcholine receptor M3 (Homo sapiens) (UniProt P20309); settings: Compound concentration 10.0 uM
# Muscarinic acetylcholine receptor M3 (Homo sapiens), sequence (P20309 whole entry, looked up): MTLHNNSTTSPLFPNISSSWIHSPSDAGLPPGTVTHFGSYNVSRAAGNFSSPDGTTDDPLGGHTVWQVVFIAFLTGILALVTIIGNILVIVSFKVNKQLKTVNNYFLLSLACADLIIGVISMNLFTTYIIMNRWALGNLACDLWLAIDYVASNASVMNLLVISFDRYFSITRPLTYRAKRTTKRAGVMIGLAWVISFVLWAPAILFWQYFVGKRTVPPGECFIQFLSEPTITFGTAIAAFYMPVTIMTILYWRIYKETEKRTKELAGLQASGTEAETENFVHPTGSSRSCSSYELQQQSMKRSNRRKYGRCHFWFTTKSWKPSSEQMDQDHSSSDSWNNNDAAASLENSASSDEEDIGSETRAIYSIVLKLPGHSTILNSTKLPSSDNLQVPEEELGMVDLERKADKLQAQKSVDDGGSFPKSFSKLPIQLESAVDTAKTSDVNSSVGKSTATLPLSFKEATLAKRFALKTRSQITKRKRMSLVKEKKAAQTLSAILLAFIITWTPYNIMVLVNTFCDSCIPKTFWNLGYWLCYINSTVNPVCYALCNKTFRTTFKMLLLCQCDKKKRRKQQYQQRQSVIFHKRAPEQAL
# [21] = molecular target: Glucocorticoid receptor (Homo sapiens) (UniProt P04150); assay: Glucocorticoid Eurofins-Panlabs radioligand binding assay; settings: Compound concentration 10.0 uM
# Glucocorticoid receptor (Homo sapiens), sequence (P04150 whole entry): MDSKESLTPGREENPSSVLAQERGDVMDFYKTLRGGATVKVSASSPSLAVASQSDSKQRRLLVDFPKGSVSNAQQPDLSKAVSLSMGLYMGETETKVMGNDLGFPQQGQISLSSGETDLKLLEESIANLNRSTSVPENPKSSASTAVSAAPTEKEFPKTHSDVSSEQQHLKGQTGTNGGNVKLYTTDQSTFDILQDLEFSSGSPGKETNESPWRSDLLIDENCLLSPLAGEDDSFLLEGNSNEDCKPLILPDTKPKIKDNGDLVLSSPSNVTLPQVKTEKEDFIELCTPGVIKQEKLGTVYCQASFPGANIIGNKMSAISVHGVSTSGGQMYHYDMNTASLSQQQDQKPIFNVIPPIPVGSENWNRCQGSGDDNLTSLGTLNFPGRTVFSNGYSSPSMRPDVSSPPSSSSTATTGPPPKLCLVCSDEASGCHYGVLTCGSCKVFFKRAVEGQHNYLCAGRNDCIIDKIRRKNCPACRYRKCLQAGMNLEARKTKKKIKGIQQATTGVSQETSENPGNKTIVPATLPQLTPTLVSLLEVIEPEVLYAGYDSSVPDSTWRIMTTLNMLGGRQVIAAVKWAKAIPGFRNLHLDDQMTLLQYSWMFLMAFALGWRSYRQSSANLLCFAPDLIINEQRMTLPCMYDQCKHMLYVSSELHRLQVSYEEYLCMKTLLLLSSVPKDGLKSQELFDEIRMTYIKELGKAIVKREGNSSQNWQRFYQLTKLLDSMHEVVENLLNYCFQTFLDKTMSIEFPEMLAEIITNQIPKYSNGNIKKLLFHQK
# [22] = molecular target: Substance-K receptor (Homo sapiens) (UniProt P21452); assay: Inhibition of Tachykinin NK2 at 10 µM in the Eurofins-Panlabs radioligand binding assay (Eurofins_assay_255600); parameters: ligand concentration 0.5 nM; settings: Compound concentration 10.0 uM
# Substance-K receptor (Homo sapiens), sequence (P21452 whole entry): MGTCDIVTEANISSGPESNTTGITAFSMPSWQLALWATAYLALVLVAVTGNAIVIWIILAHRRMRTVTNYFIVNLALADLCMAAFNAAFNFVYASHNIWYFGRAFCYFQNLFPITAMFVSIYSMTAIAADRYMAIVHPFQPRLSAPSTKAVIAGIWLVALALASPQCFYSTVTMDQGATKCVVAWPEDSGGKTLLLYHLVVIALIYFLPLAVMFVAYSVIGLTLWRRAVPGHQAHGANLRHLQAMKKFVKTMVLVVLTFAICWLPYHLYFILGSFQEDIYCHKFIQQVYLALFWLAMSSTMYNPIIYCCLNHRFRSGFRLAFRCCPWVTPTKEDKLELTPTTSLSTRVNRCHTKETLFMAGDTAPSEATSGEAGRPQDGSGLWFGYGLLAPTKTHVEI
# [23] = molecular target: Tyrosine-protein phosphatase non-receptor type 2 (Homo sapiens, UniProt P17706); assay: (§1) Protein Tyrosine Phosphatase, PTPN2 (TCPTP) Eurofins-Panlabs enzyme assay; parameters: substrate with concentration DiFMUP, incubation time 60 min, incubation temperature 37 °C
# [24] = molecular target: T2, Tyrosine-protein phosphatase non-receptor type 2 (Homo sapiens) (UniProt P17706); assay: as §1; parameters: substrate with concentration DiFMUP, incubation time 60 min, incubation temperature 37 °C
# T2 sequence (whole entry): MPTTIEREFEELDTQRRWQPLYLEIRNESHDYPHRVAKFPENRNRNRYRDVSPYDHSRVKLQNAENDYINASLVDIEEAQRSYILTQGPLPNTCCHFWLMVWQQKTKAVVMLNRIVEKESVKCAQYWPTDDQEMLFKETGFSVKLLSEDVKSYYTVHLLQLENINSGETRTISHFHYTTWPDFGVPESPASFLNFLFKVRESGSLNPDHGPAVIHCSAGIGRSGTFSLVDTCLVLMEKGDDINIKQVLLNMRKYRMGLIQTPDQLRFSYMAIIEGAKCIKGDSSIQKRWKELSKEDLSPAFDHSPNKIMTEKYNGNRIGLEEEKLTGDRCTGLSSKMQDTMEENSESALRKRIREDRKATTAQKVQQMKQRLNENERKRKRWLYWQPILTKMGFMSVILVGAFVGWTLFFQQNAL
# [25] = species: Bos taurus; assay: Protein Serine/Threonine Kinase, PKA, Non-Selective Eurofins-Panlabs enzyme assay; assay type: protein-complex assay; parameters: substrate with concentration 370 µg/mL Histone Type III-S, incubation time 15 min, incubation temperature 25 °C; settings: Compound concentration 100.0 uM
# [26] = molecular target: Substance-P receptor (Homo sapiens) (UniProt P25103); assay: Tachykinin NK1 Eurofins-Panlabs radioligand binding assay; settings: Compound concentration 10.0 uM
# [27] = molecular target: Vasoactive intestinal polypeptide receptor 1 (Homo sapiens) (UniProt P32241); assay: Inhibition of Vasoactive Intestinal Peptide VIP1 at 10 µM in the Eurofins-Panlabs radioligand binding assay (Eurofins_assay_287010); settings: Compound concentration 10.0 uM
# Vasoactive intestinal polypeptide receptor 1 (Homo sapiens), sequence (P32241 whole entry): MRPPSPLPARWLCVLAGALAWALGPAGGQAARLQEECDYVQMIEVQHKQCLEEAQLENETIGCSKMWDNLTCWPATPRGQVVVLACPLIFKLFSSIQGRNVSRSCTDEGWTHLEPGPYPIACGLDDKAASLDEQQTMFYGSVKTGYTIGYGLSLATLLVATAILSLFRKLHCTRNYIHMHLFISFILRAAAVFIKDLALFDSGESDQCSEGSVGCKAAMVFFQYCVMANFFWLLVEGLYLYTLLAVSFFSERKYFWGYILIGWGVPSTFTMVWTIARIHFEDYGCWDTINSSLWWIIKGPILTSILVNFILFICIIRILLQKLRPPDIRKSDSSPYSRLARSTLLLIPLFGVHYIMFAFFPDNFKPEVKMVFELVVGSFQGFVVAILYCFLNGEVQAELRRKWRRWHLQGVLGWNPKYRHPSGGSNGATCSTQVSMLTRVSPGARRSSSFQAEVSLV
# [28] = molecular target: Vasopressin V1a receptor (Homo sapiens) (UniProt P37288); assay: Vasopressin V1A Eurofins-Panlabs radioligand binding assay; parameters: ligand concentration 0.01 nM; settings: Compound concentration 10.0 uM
# Vasopressin V1a receptor (Homo sapiens), sequence (P37288 whole entry, looked up): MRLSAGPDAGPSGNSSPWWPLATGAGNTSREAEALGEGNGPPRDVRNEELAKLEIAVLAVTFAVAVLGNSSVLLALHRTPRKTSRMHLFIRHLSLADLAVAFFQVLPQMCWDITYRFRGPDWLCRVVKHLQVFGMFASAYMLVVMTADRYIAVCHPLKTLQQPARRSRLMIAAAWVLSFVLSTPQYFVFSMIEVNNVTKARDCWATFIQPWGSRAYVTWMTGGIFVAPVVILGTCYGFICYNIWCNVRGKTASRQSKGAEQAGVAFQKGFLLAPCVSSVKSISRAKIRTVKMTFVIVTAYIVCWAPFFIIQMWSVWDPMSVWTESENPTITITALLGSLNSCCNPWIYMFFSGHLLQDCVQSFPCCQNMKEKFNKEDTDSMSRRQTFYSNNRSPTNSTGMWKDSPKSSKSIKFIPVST
# TGF-beta receptor type-1 (Homo sapiens), sequence (P36897 whole entry): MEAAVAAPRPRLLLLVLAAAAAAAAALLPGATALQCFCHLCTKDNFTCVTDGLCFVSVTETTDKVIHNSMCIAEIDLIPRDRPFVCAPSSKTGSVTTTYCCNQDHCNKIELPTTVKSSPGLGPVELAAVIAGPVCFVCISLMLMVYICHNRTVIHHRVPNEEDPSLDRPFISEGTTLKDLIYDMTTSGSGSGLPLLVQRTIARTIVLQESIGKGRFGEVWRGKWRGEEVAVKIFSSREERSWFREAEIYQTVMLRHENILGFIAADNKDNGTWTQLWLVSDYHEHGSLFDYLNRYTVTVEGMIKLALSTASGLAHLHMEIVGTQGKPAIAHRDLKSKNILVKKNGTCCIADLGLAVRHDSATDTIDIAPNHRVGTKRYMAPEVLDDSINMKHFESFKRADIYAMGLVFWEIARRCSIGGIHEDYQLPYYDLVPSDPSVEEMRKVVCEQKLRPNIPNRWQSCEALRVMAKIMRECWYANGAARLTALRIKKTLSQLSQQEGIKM
# Alpha-2C adrenergic receptor (Homo sapiens), sequence (P18825 whole entry): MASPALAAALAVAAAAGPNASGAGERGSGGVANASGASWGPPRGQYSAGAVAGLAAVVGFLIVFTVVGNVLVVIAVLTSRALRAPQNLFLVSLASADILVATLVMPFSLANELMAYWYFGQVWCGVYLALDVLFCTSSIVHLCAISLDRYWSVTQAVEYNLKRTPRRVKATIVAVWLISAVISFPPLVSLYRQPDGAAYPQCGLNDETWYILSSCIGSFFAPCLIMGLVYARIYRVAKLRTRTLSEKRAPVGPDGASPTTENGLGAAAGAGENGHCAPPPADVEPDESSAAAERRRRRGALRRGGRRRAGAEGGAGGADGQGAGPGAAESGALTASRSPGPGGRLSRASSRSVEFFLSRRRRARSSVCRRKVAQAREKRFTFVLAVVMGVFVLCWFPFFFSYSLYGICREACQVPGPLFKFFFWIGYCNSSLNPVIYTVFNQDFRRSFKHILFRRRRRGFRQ
smiles,measurement,setting,value
N#CC1(c2ccccn2)CCN(Cc2cc(C(=O)N3CCCC3)c(=O)n3ccccc23)CC1,residual activity,[1],100%
same,inhibition,[2],1.13%
same,residual activity,[3],72%
N#CC1(c2ccccn2)CCN(Cc2cc(C(=O)O)c(=O)n3ccccc23)CC1 [MSD-M1PAM],inhibition,[4],6%
same,inhibition,[5],21%
same,inhibition,[6],-2%
same,inhibition,[7],-5%
same,inhibition,[8],-9%
same,inhibition,[9],12%
same,inhibition,[10],-1%
same,inhibition,[11],8%
same,inhibition,[12],-9%
same,inhibition,[13],-4%
same,inhibition,[14],2%
same,inhibition,[15],1%
same,inhibition,[16],17%
same,inhibition,[17],5%
same,inhibition,[18],-2%
same,inhibition,[19],11%
same,inhibition,[20],-6.58%
same,inhibition,[21],4%
same,inhibition,[22],9%
same,IC50,[23],10 µM
same,inhibition,[24]; Compound concentration 0.01 uM,-4%
same,inhibition,[24]; Compound concentration 0.1 uM,-5%
same,inhibition,[24]; Compound concentration 1.0 uM,4%
same,inhibition,[24]; Compound concentration 10.0 uM,50%
same,inhibition,[25],24%
same,inhibition,[26],0%
same,inhibition,[27],14%
same,inhibition,[28],-5%

# Source: ChEMBL document CHEMBL4507295 (2021)
